The source of these data is patent US5872280A, “Leukotriene antagonistic benzoic acid derivatives” (Bayer Aktiengesellschaft, priority 1995, dated 1999).

Experiment [1] has as its target T1, ^3 H-LTD4 binding to guinea-pig lung membranes (Cavia porcellus, UniProt Q2NNR5).
T1 construct: from tissue; host or cells: guinea-pig lung membranes
T1 sequence (Q2NNR5 1-340): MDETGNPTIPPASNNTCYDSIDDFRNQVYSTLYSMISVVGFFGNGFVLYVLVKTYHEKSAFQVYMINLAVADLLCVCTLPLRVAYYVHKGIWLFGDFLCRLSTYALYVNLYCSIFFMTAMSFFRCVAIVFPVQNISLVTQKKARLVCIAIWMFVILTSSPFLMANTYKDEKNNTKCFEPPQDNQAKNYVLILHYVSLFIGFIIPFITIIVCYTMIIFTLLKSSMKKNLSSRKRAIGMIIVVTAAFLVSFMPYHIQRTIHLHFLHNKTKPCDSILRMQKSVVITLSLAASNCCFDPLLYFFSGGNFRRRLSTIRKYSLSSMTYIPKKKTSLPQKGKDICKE
The experiment in a line: inhibition of ^3 H-LTD4 binding to guinea-pig lung membranes. The settings on record: for Ki: read-out: pKi values for the inhibition of ^3 H-LTD4 binding to guinea-pig lung membranes (converted). The source says: (§1) The representative preparations used to evaluate these compounds were the inhibition of ^3 H-LTD4 binding to guinea-pig lung membranes, as described in EP 494621, and the inhibition of both LTD4 -induced and LTC4 -induced contractions of guinea-pig tracheae as described by Tudhope et al., Eur. J. Pharmacol (1994) 264, 317-323.

The target in experiment [2] is T2, LTD4 -induced contractions of guinea-pig trachea (Cavia porcellus, UniProt Q2NNR5).
T2 construct: contractions of guinea-pig tracheae; from tissue; host or cells: guinea-pig trachea
T2 sequence (Q2NNR5 1-340): T1 sequence (Q2NNR5 1-340)
The experiment in a line: inhibition of LTD4-induced contractions of guinea-pig trachea. It counts as cell-based. The settings on record: for Kb: read-out: pKB values for the inhibition of LTD4 -induced contractions of guinea-pig trachea (converted).
From the text: as §1

The target of experiment [3] is T3, LTC4 -induced contractions of guinea-pig trachea (Cavia porcellus, UniProt H0VW05).
T3 construct: contractions of guinea-pig tracheae; from tissue; host or cells: guinea-pig trachea
T3 sequence (H0VW05 1-317): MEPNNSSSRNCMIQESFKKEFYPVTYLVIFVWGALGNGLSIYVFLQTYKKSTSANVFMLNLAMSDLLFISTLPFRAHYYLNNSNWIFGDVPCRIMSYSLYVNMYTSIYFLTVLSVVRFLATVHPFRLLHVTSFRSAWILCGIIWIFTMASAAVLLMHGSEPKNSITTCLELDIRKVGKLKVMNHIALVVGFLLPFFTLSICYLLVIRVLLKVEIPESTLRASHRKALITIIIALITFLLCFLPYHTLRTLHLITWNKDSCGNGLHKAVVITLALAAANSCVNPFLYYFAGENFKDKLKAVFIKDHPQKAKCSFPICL
The experiment in a line: inhibition of LTC4-induced contractions of guinea-pig trachea. The note with it: read-out: pKB values for the inhibition of LTC4 -induced contractions of guinea-pig trachea (converted). It counts as cell-based.
From the text: as §1

Experiment [4] has as its system both receptor types. The settings on record: Tudhope et al., Eur. J. Pharmacol. (1994) 264, 317-323; cited from earlier work.

Take `CS(=O)(=O)Nc1ccc(OCCCc2ccc(OCCCCOc3ccccc3)cc2)c(C(=O)O)c1` [Example 29, 2-(3-[4-{4-phenoxybutoxy}phenyl]propoxy)-5-(methylsulfonylamino)benzoic acid]: the Ki in experiment [1] is 2000 nM. Besides, the Kb in experiment [2] was 2000 nM.

For the molecule `O=C(O)CCCSc1cc(C(=O)O)ccc1NC(=O)CCc1ccc(OCCCCOc2ccccc2)cc1` [Example 20], the Kb in experiment [2] is 316 nM.

In the case of `O=C(O)COc1cc(C(=O)O)ccc1NC(=O)CCc1ccc(OCCCCOc2ccccc2)cc1` [Example 16], the Ki in experiment [1] was 50.1 nM. Also, the Kb in experiment [2] was 50.1 nM.

As to `O=C(O)CCCCC(=O)Nc1cc(C(=O)O)ccc1OCCCc1ccc(OCCCCOc2ccccc2)cc1` [Example 12], the Kb is 501 nM in experiment [3] and 251 nM in experiment [2]. Moreover, the Ki in experiment [1] was 1000 nM.

As for `O=C(CCc1ccc(OCCCCOc2ccccc2)cc1)Nc1cc(C(=O)O)cc(C(=O)O)c1` [Example 23], the Ki in experiment [1] was 3160 nM. In experiment [2], the Kb is 1260 nM.

Take `O=C(CCCc1ccc(OCCCCOc2ccccc2)cc1)Nc1ccc(C(=O)O)cc1C(=O)O` [Example 24, 3-carboxy-4-([4-{4-phenoxybutoxy}phenyl]-1-oxobutyl)aminobenzoic acid]: the Ki in experiment [1] is 501 nM. Further, the Kb in experiment [2] was 50.1 nM.

As for `O=C(O)CCC(=O)Nc1cc(C(=O)O)ccc1SCCc1ccc(OCCCCOc2ccccc2)cc1` [Example 32, 5-aza-5-(5-carboxy-2-(3-[4-{4-phenoxybutoxy}phenyl]-1-thiapropyl) -phenyl)-4-oxopentanoic acid], the Kb in experiment [2] is 316 nM.

Turning to `O=C(O)c1cc(NS(=O)(=O)c2ccccc2)ccc1OCCCc1ccc(OCCCCOc2ccccc2)cc1` [Example 30, 2-(3-[4-{4-phenoxybutoxy}phenyl]propoxy)-5-(phenylsulfonylamino)benzoic acid], the Ki in experiment [1] is 5010 nM. Besides, the Kb in experiment [2] was 20000 nM.

In the case of `O=C(O)c1ccc(NC(=O)c2cc(C(=O)O)ccc2OCCCc2ccc(OCCCCOc3ccccc3)cc2)cc1` [Example 10], the Kb was 126 nM in experiment [3] and 316 nM in experiment [2].

Regarding `O=C(Cc1ccc(OCCCCOc2ccccc2)cc1)Nc1ccc(C(=O)O)cc1C(=O)O` [Example 26], the Kb in experiment [2] is 1260 nM.

`O=C(O)CCNC(=O)c1cc(C(=O)O)ccc1OCCCc1ccc(OCCCCOc2ccccc2)cc1` [Example 6]: the Kb in experiment [3] and in experiment [2] was 79.4 nM each time. Besides, the Ki in experiment [1] is 251 nM.

In the case of `O=C(O)CCC(=O)Nc1cc(C(=O)O)ccc1OCCCc1ccc(OCCCCOc2ccccc2)cc1` [Example 13], in experiment [1], the Ki was 1000 nM. Further, the Kb in experiment [2] is 126 nM.

Turning to `O=C(O)CCCC(=O)Nc1cc(C(=O)O)ccc1OCCCc1ccc(OCCCCOc2ccccc2)cc1` [Example 11], the results for the Kb in experiment [3] and in experiment [2] were 1000 nM and 251 nM, respectively. In addition, in experiment [1], the Ki is 1580 nM.

In the case of `O=C(O)CCCNC(=O)c1cc(C(=O)O)ccc1OCCCc1ccc(OCCCCOc2ccccc2)cc1` [Example 4], the Kb is 63.1 nM in experiment [3] and 126 nM in experiment [2]. Also, the Ki in experiment [1] is 794 nM.

For `O=C(O)CCCC(=O)Nc1cc(C(=O)O)ccc1OCCc1ccc(OCCCCOc2ccccc2)cc1` [Example 15], in experiment [1], the “pKi values for the inhibition of ^3 H-LTD4 binding to guinea-pig lung membranes” value (from here on “pKi values for the inhibition”) is 5.3. Besides, in experiment [2], the “pKB values for the inhibition of LTD4 -induced contractions of guinea-pig trachea” value (from here on “pKB values for the inhibition of LTD4”) is reported as 6.4.

Turning to `CS(=O)(=O)Nc1ccc(SCCc2ccc(OCCCCOc3ccccc3)cc2)c(C(=O)NCCC(=O)O)c1` [Example 34, 5-aza-5-(5-methylsulfonylamino]-2-(3-[4-{4-phenoxybutoxy}phenyl]-1-thiapropyl)phenyl-4-oxopentanoic acid], the “pKi values for the inhibition” value in experiment [1] is 5.7. In addition, the “pKB values for the inhibition of LTD4” value in experiment [2] was determined as 5.6.

For the molecule `O=C(O)c1cccc(NC(=O)c2cc(C(=O)O)ccc2OCCCc2ccc(OCCCCOc3ccccc3)cc2)c1` [Example 8, N-(3-carboxyphenyl)-2-[3-{4-phenoxybutoxy}phenylpropoxy]-5-carboxybenzamide], the Kb in experiment [2] was 631 nM.

As for `O=C(O)CC(=O)Nc1cc(C(=O)O)ccc1OCCCc1ccc(OCCCCOc2ccccc2)cc1` [Example 14], the Ki in experiment [1] was 316 nM. In addition, the Kb in experiment [2] was 251 nM.

As for `O=C(O)CCCC(=O)c1cc(C(=O)O)ccc1NC(=O)CCc1ccc(OCCCCOc2ccccc2)cc1` [Example 21], in experiment [2], the Kb is 31.6 nM.

On to `CS(=O)(=O)Nc1ccc(OCCCc2ccc(OCCCCOc3ccccc3)cc2)c(C(=O)NCCC(=O)O)c1` [Example 31, 4-aza-5-(5-[methylsulfonylamino]-2-(3-[4-{4-phenoxybutoxy}phenyl]-propoxy)phenyl)-5-oxopentanoic acid], for which, in experiment [1], the Ki is 316 nM. Also, the Kb in experiment [2] was 3980 nM.

Consider `O=C(O)CCCCCOc1cc(C(=O)O)ccc1NC(=O)CCc1ccc(OCCCCOc2ccccc2)cc1` [Example 18], for which, in experiment [1], the Ki was 631 nM. For the same molecule, in experiment [2], the Kb was 79.4 nM.

On to `O=C(O)CCCCNC(=O)c1cc(C(=O)O)ccc1OCCCc1ccc(OCCCCOc2ccccc2)cc1` [Example 7], for which the “pKi values for the inhibition” value in experiment [1] worked out at 5.7. Moreover, the “pKB values for the inhibition of LTD4” value in experiment [2] worked out at 6.6.

With `O=C(O)CNC(=O)c1cc(C(=O)O)ccc1OCCCc1ccc(OCCCCOc2ccccc2)cc1` [Example 5], the Kb is 1260 nM in experiment [3] and 79.4 nM in experiment [2]. For the same molecule, the Ki in experiment [1] was 398 nM.

With `O=C(O)CCCC(=O)Nc1cc(C(=O)O)ccc1SCCc1ccc(OCCCCOc2ccccc2)cc1` [Example 33], the “pKB values for the inhibition of LTD4” value in experiment [2] is 6.6.

Turning to `O=C(O)CCCOc1cc(C(=O)O)ccc1NC(=O)CCc1ccc(OCCCCOc2ccccc2)cc1` [Example 17], the Ki in experiment [1] was 398 nM. The Kb in experiment [2] was 251 nM.

For the molecule `CCCCC/C=C\C\C=C/C=C/C=C/[C@@H](Sc1ccc(C(=O)O)cc1)[C@@H](O)CCCC(=O)O` [Compound A], in experiment [4], the “activity at both receptor types” value is “comparable activity at both receptor types”.

For `O=C(CCc1ccc(OCCCCOc2ccccc2)cc1)Nc1ccc(C(=O)O)cc1C(=O)O` [Example 22], the Ki in experiment [1] was 251 nM. The Kb in experiment [2] is 50.1 nM.

`O=C(O)CCCNC(=O)c1cc(C(=O)O)ccc1OCCCc1cccc(OCCCCOc2ccccc2)c1` [Example 36, 5-aza-6-(5-carboxy-2-(3-[3-{4-phenoxybutoxy}phenyl]propoxy)phenyl)-6-oxohexanoic acid]: the Ki in experiment [1] is 25100 nM.

For `O=C(CCCc1ccc(OCCCCOc2ccccc2)cc1)Nc1cc(C(=O)O)cc(C(=O)O)c1` [Example 25, 3-carboxy-5-([4-{4-phenoxybutoxy}phenyl]-1-oxobutyl)aminobenzoic acid], the Ki in experiment [1] was 1580 nM. Moreover, in experiment [2], the Kb is 1580 nM.
